According to US10517889B2, “Modulators of SMAD7 expression” (Ionis Pharmaceuticals, Inc., priority 2017, dated 2019):
Strand notation (5' to 3'): a small letter for the sugar, then the base; units joined by * are phosphorothioate-linked, units joined directly phosphodiester-linked; [ ] holds rarer units or linkages, { } end groups; capitals alone tell only the bases. e = 2'-O-(2-methoxyethyl) (MOE); [5mC] = 5-methylcytosine; d = 2'-deoxy (DNA)

Tested on: human SMAD7 mRNA
Assay: Antisense inhibition of human SMAD7 mRNA expression in Hep3B cells by 5-10-5 MOE gapmers, single concentration, electroporation, RT-PCR (Example 1, Study 1 and 2)
Format: cell-based
Method: Antisense oligonucleotides were designed to target human SMAD7 mRNA and were tested for their effects on SMAD7 mRNA expression in vitro. Cultured Hep3B cells at a density of 20,000 cells per well were transfected using electroporation with antisense oligonucleotide ION 483663 (a 5-10-5 MOE gapmer), the sequence of which overlaps with ION 28453 (a 4-10-4 MOE gapmer) was included in these assays for comparison. ION 28453 has been previously disclosed in U.S. Pat. No. 6,159,697). After a treatment period of approximately 24 hours, RNA was isolated from the cells and SMAD7 mRNA levels were measured by quantitative real-time PCR. Primer probe set RTS5062 (forward sequence […], designated herein as SEQ ID NO: 11; reverse sequence […], designated herein as SEQ ID NO: 12; probe sequence […], designated herein as SEQ ID NO: 13) was used to measure human SMAD7 mRNA levels. SMAD7 mRNA levels were adjusted according to total RNA content, as measured by RIBOGREEN®. Results are presented as percent inhibition of SMAD7 mRNA expression, relative to untreated control cells.
The newly designed chimeric antisense oligonucleotides in the Tables below were designed as 5-10-5 MOE gapmers. The gapmers are 20 nucleosides in length, wherein the central gap segment comprises of ten 2′-deoxynucleosides and is flanked by wing segments on the 5′ direction and the 3′ direction comprising five nucleosides each. Each nucleoside in the 5′ wing segment and each nucleoside in the 3′ wing segment has a 2′-MOE modification. The internucleoside linkages throughout each gapmer are phosphorothioate (P═S) linkages. All cytosine residues throughout each gapmer are 5-methylcytosines.
“Start site” indicates the 5′-most nucleoside to which the gapmer is targeted in the human gene sequence. “Stop site” indicates the 3′-most nucleoside to which the gapmer is targeted human gene sequence.
Cultured Hep3B cells at a density of 20,000 cells per well were transfected using electroporation with 5,000 nM antisense oligonucleotide.
Cultured Hep3B cells at a density of 20,000 cells per well were transfected using electroporation with 15,000 nM antisense oligonucleotide. The antisense oligonucleotides were tested in a series of experiments that had similar culture conditions as described below.
Some of the oligonucleotides presented were complementary to SMAD7 mRNA sequences RefSeqNo. NM_001190821.1 (designated herein as SEQ ID NO: 3) or RefSeqNo. NM_001190822.1 (designated herein as SEQ ID NO: 4), and are presented in a separate table shown below.

[1] = Study 2, electroporation with 15,000 nM antisense oligonucleotide, 5-10-5 MOE gapmers targeting SEQ ID NO: 1 and 2
[2] = electroporation, 15,000 nM antisense oligonucleotide (Study 2), 5-10-5 MOE gapmers targeting SEQ ID NO: 1 and 2
[3] = electroporation with 15,000 nM antisense oligonucleotide (Study 2), 5-10-5 MOE gapmers targeting SEQ ID NO: 1 and 2
[4] = electroporation, 15,000 nM, approximately 24 hours, relative to untreated control cells, gapmers targeting SEQ ID NO: 1 and 2

| Substance | % Inhibition [1] | % inhibition of SMAD7 mRNA expression [2] | further results |
| --- | --- | --- | --- |
| 771743 (antisense eG*e[5mC]*e[5mC]*eA*eT*dA*d[5mC]*d[5mC]*dT*d[5mC]*d[5mC]*dA*dT*d[5mC]*dT*e[5mC]*eT*e[5mC]*eA*e[5mC]) [compound 771743] | 0% | – | – |
| 771881 (antisense eA*eT*eT*eT*eT*d[5mC]*d[5mC]*dA*dA*dA*dA*dG*dG*dA*d[5mC]*eA*eA*eA*eA*e[5mC]) [compound 771881] | – | 0% | – |
| 771401 (antisense eG*e[5mC]*eA*eG*eG*d[5mC]*dG*dA*d[5mC]*dA*dG*d[5mC]*dA*dG*d[5mC]*eA*eG*e[5mC]*eA*eG) [compound 771401] | 21% | – | – |
| 771856 (antisense e[5mC]*eT*eG*eA*eA*dA*dG*dA*dA*dA*dG*dT*d[5mC]*d[5mC]*d[5mC]*eG*eA*e[5mC]*eT*eT) [compound 771856] | – | 34% | % Inhibition of SMAD7 mRNA [3]: 35% |
| 771394 (antisense e[5mC]*eG*e[5mC]*eT*e[5mC]*d[5mC]*dG*dG*d[5mC]*dT*dG*d[5mC]*d[5mC]*d[5mC]*d[5mC]*eA*e[5mC]*e[5mC]*e[5mC]*e[5mC]) [compound 771394] | 10% | – | – |
| 771724 (antisense e[5mC]*e[5mC]*eT*eT*e[5mC]*dT*d[5mC]*d[5mC]*d[5mC]*dA*dG*dA*dA*d[5mC]*d[5mC]*eT*eT*eG*eG*e[5mC]) [compound 771724] | 27% | – | – |
| 771861 (antisense eA*eG*eA*eA*eA*dA*d[5mC]*dA*dG*d[5mC]*d[5mC]*d[5mC]*d[5mC]*d[5mC]*d[5mC]*e[5mC]*eA*eG*e[5mC]*eA) [compound 771861] | – | – | % inhibition of SMAD7 mRNA expression [4]: 13% |
| 771932 (antisense e[5mC]*eG*eA*eG*eG*dT*dG*d[5mC]*d[5mC]*d[5mC]*d[5mC]*d[5mC]*dA*dT*dG*e[5mC]*e[5mC]*eA*eG*eG) [compound 771932] | 13% | – | – |
| 771876 (antisense e[5mC]*eG*eA*eG*e[5mC]*dT*d[5mC]*d[5mC]*d[5mC]*dT*d[5mC]*d[5mC]*d[5mC]*dT*dG*eG*e[5mC]*e[5mC]*e[5mC]*e[5mC]) [compound 771876] | 0% | – | – |
| 771901 (antisense eA*eA*eA*eA*eT*dG*d[5mC]*d[5mC]*d[5mC]*dA*d[5mC]*d[5mC]*dA*dG*dT*e[5mC]*eT*eT*e[5mC]*e[5mC]) [compound 771901] | – | – | % inhibition of SMAD7 mRNA expression [4]: 41% |
| 771669 (antisense eT*eT*eT*e[5mC]*eT*d[5mC]*dT*d[5mC]*dT*d[5mC]*dA*dA*dA*dG*d[5mC]*eA*e[5mC]*eT*eA*e[5mC]) [compound 771669] | – | – | % inhibition of SMAD7 mRNA expression [4]: 55% |
| 771448 (eG*eA*eG*eT*e[5mC]*dG*dG*d[5mC]*dT*dA*dA*dG*dG*dT*dG*eA*eT*eG*eG*eG; antisense) [compound 771448] | 29% | – | – |
| 771882 (antisense eG*e[5mC]*eA*eT*e[5mC]*dA*dT*dG*dA*dA*dA*dA*dT*d[5mC]*dT*eT*eA*eA*eT*eA) [compound 771882] | – | 35% | – |
| 771360 (antisense eA*e[5mC]*e[5mC]*eT*eT*dG*dT*d[5mC]*dA*d[5mC]*d[5mC]*d[5mC]*dG*dT*d[5mC]*eT*eG*eG*eG*e[5mC]) [compound 771360] | – | – | % inhibition of SMAD7 mRNA expression [4]: 49% |
| 483665 (antisense eG*e[5mC]*eG*eA*eA*d[5mC]*dA*dT*dG*dA*d[5mC]*d[5mC]*dT*d[5mC]*d[5mC]*eG*e[5mC]*eA*e[5mC]*eA) [compound 483665] | 55% | – | % inhibition of SMAD7 mRNA expression (electroporation, 5,000 nM, approximately 24 hours, relative to untreated control cells, gapmers targeting SEQ ID NO: 1 and 2): 10% |
| 771646 (antisense eT*eA*eT*eG*eA*dG*dT*dT*dG*dT*dA*dG*dA*dA*dG*eA*eA*eA*eT*eG) [compound 771646] | – | – | % inhibition of SMAD7 mRNA expression [1]: 0% |
| 771941 (antisense eT*e[5mC]*eA*eA*eT*dG*dA*dT*dG*dA*dT*dG*dG*dG*dT*eT*eG*e[5mC]*eA*e[5mC]) [compound 771941] | – | – | % inhibition of SMAD7 mRNA expression [4]: 40% |

| Substance | % Inhibition [1] | % inhibition of SMAD7 mRNA expression [2] | further results |
| --- | --- | --- | --- |
| 771569 (antisense eG*eG*eA*e[5mC]*eT*dG*d[5mC]*dA*dA*dA*d[5mC]*d[5mC]*dT*d[5mC]*dT*e[5mC]*eT*eG*e[5mC]*eT) [compound 771569] | – | 30% | – |
| 771912 (antisense eA*eT*eA*eT*eT*d[5mC]*d[5mC]*dT*d[5mC]*dT*dG*d[5mC]*d[5mC]*dA*dA*eA*eG*eT*e[5mC]*e[5mC]) [compound 771912] | – | 19% | % Inhibition of SMAD7 mRNA [3]: 44% |
| 771446 (e[5mC]*eA*e[5mC]*eA*eG*d[5mC]*d[5mC]*dT*d[5mC]*dT*dT*dG*dA*d[5mC]*dT*eT*e[5mC]*e[5mC]*eG*eA; antisense) [compound 771446] | – | – | % inhibition of SMAD7 mRNA expression [4]: 55% |
| 771478 (antisense e[5mC]*eA*e[5mC]*e[5mC]*eT*dT*dG*dT*dG*dT*dA*d[5mC]*d[5mC]*dA*dA*e[5mC]*eA*eG*e[5mC]*eG) [compound 771478] | – | – | % inhibition of SMAD7 mRNA expression [4]: 53% |
| 771347 (antisense eT*eG*eG*eG*e[5mC]*d[5mC]*dA*d[5mC]*dT*dG*dG*dT*dG*dT*dT*e[5mC]*eG*eA*e[5mC]*eG) [compound 771347] | – | 0% | % Inhibition of SMAD7 mRNA [3]: 32% |
| 771591 (antisense e[5mC]*eA*eG*eA*eA*dG*d[5mC]*d[5mC]*dT*dG*dT*dG*dG*dA*d[5mC]*eA*eG*eG*e[5mC]*e[5mC]) [compound 771591] | – | – | % inhibition of SMAD7 mRNA expression [1]: 50% |
| 771435 (e[5mC]*eA*eG*e[5mC]*eT*dG*d[5mC]*d[5mC]*dG*d[5mC]*dT*d[5mC]*d[5mC]*dT*dT*e[5mC]*eA*eG*eT*eT; antisense) [compound 771435] | – | 29% | – |
| 771554 (antisense eT*eT*eT*eG*eG*dT*dG*dG*dT*dG*d[5mC]*dT*dT*dG*dG*eA*eT*eT*eT*e[5mC]) [compound 771554] | – | 20% | – |
| 771585 (antisense eG*eA*eG*e[5mC]*e[5mC]*dG*dT*dG*d[5mC]*dT*d[5mC]*d[5mC]*dT*dG*dG*e[5mC]*eA*eG*e[5mC]*eT) [compound 771585] | – | 49% | – |
| 771648 (antisense e[5mC]*eA*eT*eA*e[5mC]*dG*dA*dG*dT*dG*dT*dA*dT*dG*dA*eG*eT*eT*eG*eT) [compound 771648] | – | – | % Inhibition of SMAD7 mRNA [3]: 17%; % inhibition of SMAD7 mRNA expression [3]: 0% |
| 771580 (antisense eA*eG*e[5mC]*eT*eT*dG*d[5mC]*d[5mC]*d[5mC]*dA*dG*dG*dT*dA*d[5mC]*eT*eG*e[5mC]*e[5mC]*eT) [compound 771580] | – | – | % inhibition of SMAD7 mRNA expression [1]: 25% |
| 771421 (eG*e[5mC]*e[5mC]*e[5mC]*eT*dG*d[5mC]*d[5mC]*d[5mC]*dG*dG*dG*d[5mC]*d[5mC]*dG*e[5mC]*e[5mC]*eG*e[5mC]*e[5mC]; antisense) [compound 771421] | 0% | – | – |
| 771946 (antisense eG*eG*eG*e[5mC]*eT*dA*d[5mC]*d[5mC]*dT*dT*dA*dA*d[5mC]*dA*dA*eA*eG*e[5mC]*eT*eT) [compound 771946] | – | 47% | – |
| 771413 (eT*eG*eT*e[5mC]*e[5mC]*dG*dT*d[5mC]*dG*d[5mC]*d[5mC]*d[5mC]*d[5mC]*dT*dT*e[5mC]*eT*e[5mC]*e[5mC]*e[5mC]; antisense) [compound 771413] | 24% | – | – |
| 771491 (antisense eG*eG*e[5mC]*e[5mC]*e[5mC]*d[5mC]*dA*dG*d[5mC]*d[5mC]*d[5mC]*dT*dT*d[5mC]*dA*e[5mC]*eA*eA*eA*eG) [compound 771491] | – | 39% | – |
| 771510 (antisense eA*eG*eT*eG*eT*dG*dG*d[5mC]*d[5mC]*dT*dG*d[5mC]*dT*d[5mC]*dA*eG*e[5mC]*eT*e[5mC]*eA) [compound 771510] | – | – | % inhibition of SMAD7 mRNA expression [1]: 35% |
